# Where two headings read alike, the source gives them in different places.
# Tests used:
# [1] = tested on: protease expression (MMP1, MMP3, MMP13); assay: Inhibition of protease release (qRT-PCR, TNF-α + Oncostatin M stimulated chondrocytes); format: cell-based, human; settings: 72 hours, FIGS. 19A-C
# Description: Human MSCs were plated in 10 cm dishes in chondrogenic induction medium (Lonza; DMEM, dexamethasone, ascorbate, insulin-transferrin-selenium [ITS supplement], gentamycin-amphotericin [GA-1000], sodium pyruvate, proline and L-glutamine) and treated with TGF-β3 (20 μg/mL) to induce chondrogenic differentiation. Cells from 4 dishes were pooled and re-plated in 24-well plates in Chondrogenic Induction Medium and treated with various concentrations of the compound of Formula (I). 4 hours later, MMP production was stimulated by adding TNF-α (20 μg/mL)+Oncostatin M (10 ng/mL) and cells were incubated at 37° C., 5% CO2 for 72 hours. Cells were then pelleted and washed, and total RNA was isolated and purified using RNeasy Plus Mini Kit (Qiagen). cDNA was synthesized from 1 μg of total RNA using QuantiTect Reverse Transcription kit (Qiagen). qRT-PCR was performed with QuantiTect SYBR Green PCR Kit (Qiagen) and gene-specific primers, using CFX384 thermal cycler (Biorad). Transcripts were quantitated by comparative Ct method, and normalized to endogenous controls, β-actin and GAPDH. Fold changes were normalized to unstimulated cells. […] FIG. 19A depicts MMP1 production. FIG. 19B depicts MMP3 production. FIG. 19C depicts MMP13 production.
# secreted GAG = assay: Immunosuppression in chondrocytes: GAG content (DMMB); format: cell-based, human; settings: cells stimulated with TNF-α and oncostatin M or IL-1β; 72 hours; FIG. 20A
# Description: (§1) Human MSCs were plated in 10 cm dishes in chondrogenic induction medium (Lonza; DMEM, dexamethasone, ascorbate, insulin-transferrin-selenium [ITS supplement], gentamycin-amphotericin [GA-1000], sodium pyruvate, proline and L-glutamine) and treated with TGF-β3 (20 μg/mL) to induce chondrogenic differentiation. Cells from 4 dishes were pooled and re-plated in 24-well plates in Chondrogenic Induction Medium and treated with various concentrations of the compound of Formula (I). 4 hours later, cells were stimulated by adding TNF-α (20 μg/mL)+Oncostatin M ([…]) or IL-1β (10 μg/mL) and incubated at 37° C., 5% CO2 for 72 hours. Chondrocytes were digested with papain (Sigma). GAG content was measured using the dimethylmethylene blue (DMMB) kit (Chondrex). Briefly, the digested chondrocytes were mixed with DMMB in formate buffer and absorbance at 535 nm was measured using Cytation 3 (Biotek). Nitric oxide was measured using Greiss reagent (Promega) according to manufacturer's protocol.
# nitric oxide release = assay: Immunosuppression in chondrocytes: nitric oxide (Greiss reagent); format: cell-based, human; settings: cells stimulated with TNF-α and oncostatin M or IL-1β; 72 hours; FIG. 20B
# Description: as §1
# [2] = Dog pharmacokinetics after IA injection (plasma, cartilage, bone, synovial fluid); format: in vivo, beagle dogs; settings: for % Recovered / Compound of Formula (I) Concentration, Bone / Compound of Formula (I) Concentration, Cartilage / Total Amount Recovered / concentration at 45 day / concentration at 91 day / concentration at 179 day: dogs, IA suspension
# Description: In rats and dogs, the pharmacokinetic profile, safety profile, tissue distribution and cartilage regeneration following a single intra-articular (IA) injection of the compound of Formula (I) in the plasma and the knee joint (cartilage and bone) was determined. The compound of Formula (I) (Form 1) was formulated as a suspension composition in 0.5% CMC/0.05% Polysorbate 80 in PBS.
# A 350 μL suspension of the compound of Formula (I) (Form 1), formulated as described above, and corresponding to 3 and 30 μg/knee, was injected intra-articularly (IA) into the right and left knees of twelve (12) naïve male beagle dogs. On Day 1, blood was collected at 15 minutes immediately after IA injection and on Days 45, 91 and 179, dogs were sacrificed and blood samples and the knee joints were collected. Plasma and tissue concentrations (bone, cartilage and synovial fluid) were determined using the HPLC-MS/MS bioanalytical method with a dynamic range of […] in plasma or 5.00 to […] in tissue.
# [3] = dog, up to 30 μg/knee, 179 days
compound,measurement,setting,value
CC(C)CC(=O)Nc1cncc(-c2ccc3[nH]nc(-c4nc5c(-c6cccc(F)c6)cncc5[nH]4)c3c2)c1 [compound of Formula (I)],"protease expression (MMP1, MMP3, MMP13)",[1],dose-dependent inhibition
same,secreted GAG,secreted GAG,reduced
same,release of nitric oxide,nitric oxide release,reduced
same,% of administered dose recovered,"[2]; dog, 3 μg/knee, Day 45",5.1%
same,total amount recovered from cartilage and bone tissues from the tibia,"[2]; dog, 3 μg/knee, Day 45",152 ng
same,% of administered dose recovered,"[2]; dog, 3 μg/knee, Day 91",0.55%
same,total amount recovered from cartilage and bone tissues from the tibia,"[2]; dog, 3 μg/knee, Day 91",16.6 ng
same,% of administered dose recovered,"[2]; dog, 3 μg/knee, Day 179",2.5%
same,total amount recovered from cartilage and bone tissues from the tibia,"[2]; dog, 3 μg/knee, Day 179",79 ng
same,% of administered dose recovered,"[2]; dog, 30 μg/knee, Day 45",16.8%
same,total amount recovered from cartilage and bone tissues from the tibia,"[2]; dog, 30 μg/knee, Day 45",5060 ng
same,% of administered dose recovered,"[2]; dog, 30 μg/knee, Day 91",7.25%
same,total amount recovered from cartilage and bone tissues from the tibia,"[2]; dog, 30 μg/knee, Day 91",2250 ng
same,% of administered dose recovered,"[2]; dog, 30 μg/knee, Day 179",7.03%
same,total amount recovered from cartilage and bone tissues from the tibia,"[2]; dog, 30 μg/knee, Day 179",2110 ng
same,systemic exposure,"[2]; dog, up to 30 μg/knee, 15 minutes post-dose",no measurable systemic exposure
same,adverse effects from intra-articular administration,[2]; [3],no adverse effects
same,mortality,[2]; [3],no mortality
same,% Recovered,"[2]; 3 μg/knee, Day 45",5.1%
same,"Compound of Formula (I) Concentration, Bone","[2]; 3 μg/knee, Day 45",[22] nM
same,"Compound of Formula (I) Concentration, Cartilage","[2]; 3 μg/knee, Day 45",[301] nM
same,Total Amount Recovered,"[2]; 3 μg/knee, Day 45",152 ng
same,% Recovered,"[2]; 3 μg/knee, Day 91",0.55%
same,"Compound of Formula (I) Concentration, Bone","[2]; 3 μg/knee, Day 91",BQL
same,"Compound of Formula (I) Concentration, Cartilage","[2]; 3 μg/knee, Day 91",[73] nM
same,Total Amount Recovered,"[2]; 3 μg/knee, Day 91",16.6 ng
same,% Recovered,"[2]; 3 μg/knee, Day 179",2.6%
same,"Compound of Formula (I) Concentration, Bone","[2]; 3 μg/knee, Day 179",12.8 ng/g and [25] nM
same,"Compound of Formula (I) Concentration, Cartilage","[2]; 3 μg/knee, Day 179",63.7 ng/g and [126] nM
same,Total Amount Recovered,"[2]; 3 μg/knee, Day 179",79.0 ng
same,% Recovered,"[2]; 30 μg/knee, Day 45",16.9%
same,"Compound of Formula (I) Concentration, Bone","[2]; 30 μg/knee, Day 45",[1160] nM
same,"Compound of Formula (I) Concentration, Cartilage","[2]; 30 μg/knee, Day 45",[8960] nM
same,Total Amount Recovered,"[2]; 30 μg/knee, Day 45",5057 ng
same,% Recovered,"[2]; 30 μg/knee, Day 91",7.4%
same,"Compound of Formula (I) Concentration, Bone","[2]; 30 μg/knee, Day 91",[234] nM
same,"Compound of Formula (I) Concentration, Cartilage","[2]; 30 μg/knee, Day 91",[4609] nM
same,Total Amount Recovered,"[2]; 30 μg/knee, Day 91",2175 ng
same,% Recovered,"[2]; 30 μg/knee, Day 179",7.0%
same,"Compound of Formula (I) Concentration, Bone","[2]; 30 μg/knee, Day 179",[2289] nM
same,"Compound of Formula (I) Concentration, Cartilage","[2]; 30 μg/knee, Day 179",[228] nM
same,Total Amount Recovered,"[2]; 30 μg/knee, Day 179",2109 ng
same,concentration at 45 day,"[2]; male, beagle, dog, bone, other: intra-articular, 3 μg/knee, Day 45, read-out: Compound of Formula (I) Concentration, Bone",11.2 ng/g
same,concentration at 45 day,"[2]; male, beagle, dog, bone, other: intra-articular, 30 μg/knee, Day 45, read-out: Compound of Formula (I) Concentration, Bone",586 ng/g
same,concentration at 91 day,"[2]; male, beagle, dog, bone, other: intra-articular, 30 μg/knee, Day 91, read-out: Compound of Formula (I) Concentration, Bone",118 ng/g
same,concentration at 179 day,"[2]; male, beagle, dog, bone, other: intra-articular, 30 μg/knee, Day 179, read-out: Compound of Formula (I) Concentration, Bone",1160 ng/g
same,concentration at 45 day,"[2]; male, beagle, dog, cartilage, other: intra-articular, 3 μg/knee, Day 45, read-out: Compound of Formula (I) Concentration, Cartilage",152 ng/g
same,concentration at 91 day,"[2]; male, beagle, dog, cartilage, other: intra-articular, 3 μg/knee, Day 91, read-out: Compound of Formula (I) Concentration, Cartilage",37 ng/g
same,concentration at 45 day,"[2]; male, beagle, dog, cartilage, other: intra-articular, 30 μg/knee, Day 45, read-out: Compound of Formula (I) Concentration, Cartilage",4520 ng/g
same,concentration at 91 day,"[2]; male, beagle, dog, cartilage, other: intra-articular, 30 μg/knee, Day 91, read-out: Compound of Formula (I) Concentration, Cartilage",2330 ng/g
same,concentration at 179 day,"[2]; male, beagle, dog, cartilage, other: intra-articular, 30 μg/knee, Day 179, read-out: Compound of Formula (I) Concentration, Cartilage",115 ng/g
same,concentration at 15 min,"[2]; male, beagle, plasma, other: intra-articular, dog, 15 min post-dose, 3 or 30 μg/knee, BQL",< 2000 ng/mL
